Laboratory results: ChEMBL document CHEMBL5444388, “Affinity Phenotypic Cellular Literature for EUbOPEN Chemogenomic Library” (2024)
Blank lines part the entries; values can stand above or below the compound they belong to. Where a SMILES comes first, the peptide text is derived from it. [ ]: non-standard residue; d: D form. Arg(Me) = CNC(=N)NCCC[C@H](N)C(=O)O; d3Pal = N[C@H](Cc1cccnc1)C(=O)O; azaGly = NNC(=O)O

How the values were obtained:
[1] = target: Mitotic checkpoint serine/threonine-protein kinase BUB1 (Homo sapiens, UniProt O43683); assay type: functional, cell-based, HeLa
[2] = target: Interleukin-1 receptor-associated kinase 4 (Homo sapiens, UniProt Q9NWZ3); experiment: Affinity Phenotypic Cellular interaction: (R848-induced IL-6 production in human whole blood) EUB0001558a IRAK4; assay type: functional, tissue-based; parameters: mode of action Inhibitor, recommended concentration 1 uM
[3] = target: T1, RAF proto-oncogene serine/threonine-protein kinase (Homo sapiens, UniProt P04049); experiment: Affinity Phenotypic Cellular interaction: (Western blot assay (phosphorylation of ERK in HFF cells expressing BRAF/RAS wt)) EUB0000655a RAF1; assay type: functional, cell-based; parameters: mode of action Inhibitor, recommended concentration 1 uM
T1 sequence (P04049 whole entry): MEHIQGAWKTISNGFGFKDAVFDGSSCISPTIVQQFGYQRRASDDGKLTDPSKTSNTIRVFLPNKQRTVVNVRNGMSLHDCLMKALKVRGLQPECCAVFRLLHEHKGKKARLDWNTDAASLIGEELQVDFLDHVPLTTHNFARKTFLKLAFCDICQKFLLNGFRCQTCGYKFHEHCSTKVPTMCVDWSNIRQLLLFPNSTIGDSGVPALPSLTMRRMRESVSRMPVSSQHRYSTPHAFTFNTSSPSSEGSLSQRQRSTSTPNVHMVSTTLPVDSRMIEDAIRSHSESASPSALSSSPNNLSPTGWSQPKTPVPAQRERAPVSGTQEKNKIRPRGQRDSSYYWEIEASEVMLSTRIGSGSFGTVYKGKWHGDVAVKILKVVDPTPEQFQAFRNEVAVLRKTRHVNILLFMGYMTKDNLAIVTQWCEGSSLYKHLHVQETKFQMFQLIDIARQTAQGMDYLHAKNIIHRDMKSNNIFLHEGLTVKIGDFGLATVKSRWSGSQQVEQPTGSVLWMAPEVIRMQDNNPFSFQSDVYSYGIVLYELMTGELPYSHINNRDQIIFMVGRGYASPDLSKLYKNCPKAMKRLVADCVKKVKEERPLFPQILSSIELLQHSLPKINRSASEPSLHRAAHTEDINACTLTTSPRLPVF

[4] = target: T1, RAF proto-oncogene serine/threonine-protein kinase; experiment: Affinity Phenotypic Cellular interaction: (Western blot assay (phosphorylation of ERK in HMEC cells expressing BRAF/RAS wt)) EUB0000655a RAF1; assay type: functional, cell-based; parameters: mode of action Inhibitor, recommended concentration 1 uM
[5] = target: T1, RAF proto-oncogene serine/threonine-protein kinase; experiment: Affinity Phenotypic Cellular interaction: (Western blot assay (phosphorylation of ERK in PREC cells expressing BRAF/RAS wt)) EUB0000655a RAF1; assay type: functional, cell-based; parameters: mode of action Inhibitor, recommended concentration 1 uM
[6] = target: T1, RAF proto-oncogene serine/threonine-protein kinase; experiment: Affinity Phenotypic Cellular interaction: (Western blot assay (phosphorylation of ERK in HCT-116 cells expressing BRAF wt/K-Ras2(G13D))) EUB0000655a RAF1; assay type: functional, cell-based; parameters: mode of action Inhibitor, recommended concentration 1 uM
[7] = target: T1, RAF proto-oncogene serine/threonine-protein kinase; experiment: Affinity Phenotypic Cellular interaction: (Western blot assay (phosphorylation of ERK in HT-1080 cells expressing BRAF wt/N-Ras2(Q61K))) EUB0000655a RAF1; assay type: functional, cell-based; parameters: mode of action Inhibitor, recommended concentration 1 uM
[8] = target: T1, RAF proto-oncogene serine/threonine-protein kinase; experiment: Affinity Phenotypic Cellular interaction: (Western blot assay (phosphorylation of ERK in SKMEL2 cells expressing BRAF wt/N-Ras2(Q61R))) EUB0000655a RAF1; assay type: functional, cell-based, SK-MEL-2; parameters: mode of action Inhibitor, recommended concentration 1 uM
[9] = target: T1, RAF proto-oncogene serine/threonine-protein kinase; experiment: Affinity Phenotypic Cellular interaction: (Western blot assay (phosphorylation of ERK in A375P cells expressing BRAF V600E/RAS wt)) EUB0000655a RAF1; assay type: functional, cell-based; parameters: mode of action Inhibitor, recommended concentration 1 uM
[10] = target: T1, RAF proto-oncogene serine/threonine-protein kinase; experiment: Affinity Phenotypic Cellular interaction: (Western blot assay (phosphorylation of ERK in […] cells expressing BRAF V600E/RAS wt)) EUB0000655a RAF1; assay type: functional, cell-based, COLO 205; parameters: mode of action Inhibitor, recommended concentration 1 uM
[11] = target: T1, RAF proto-oncogene serine/threonine-protein kinase; experiment: Affinity Phenotypic Cellular interaction: (Western blot assay (phosphorylation of ERK in HT-29 cells expressing BRAF V600E/RAS wt)) EUB0000655a RAF1; assay type: functional, cell-based; parameters: mode of action Inhibitor, recommended concentration 1 uM
[12] = target: T1, RAF proto-oncogene serine/threonine-protein kinase; experiment: Affinity Phenotypic Cellular interaction: (Western blot assay (phosphorylation of ERK in MALME-3M cells expressing BRAF V600E/RAS wt)) EUB0000655a RAF1; assay type: functional, cell-based; parameters: mode of action Inhibitor, recommended concentration 1 uM
[13] = target: T2, Cyclin-dependent kinase 8 (Homo sapiens, UniProt P49336); experiment: Affinity Phenotypic Cellular interaction: (Reporter-based luciferase assay (in LS174T cell line (xcexb2-catenin mutant) bearing activating WNT-pathway mutations)) EUB0001623a CDK8; assay type: functional; parameters: mode of action Inhibitor, recommended concentration 100 nM
T2 sequence (P49336 whole entry, looked up, change not shown): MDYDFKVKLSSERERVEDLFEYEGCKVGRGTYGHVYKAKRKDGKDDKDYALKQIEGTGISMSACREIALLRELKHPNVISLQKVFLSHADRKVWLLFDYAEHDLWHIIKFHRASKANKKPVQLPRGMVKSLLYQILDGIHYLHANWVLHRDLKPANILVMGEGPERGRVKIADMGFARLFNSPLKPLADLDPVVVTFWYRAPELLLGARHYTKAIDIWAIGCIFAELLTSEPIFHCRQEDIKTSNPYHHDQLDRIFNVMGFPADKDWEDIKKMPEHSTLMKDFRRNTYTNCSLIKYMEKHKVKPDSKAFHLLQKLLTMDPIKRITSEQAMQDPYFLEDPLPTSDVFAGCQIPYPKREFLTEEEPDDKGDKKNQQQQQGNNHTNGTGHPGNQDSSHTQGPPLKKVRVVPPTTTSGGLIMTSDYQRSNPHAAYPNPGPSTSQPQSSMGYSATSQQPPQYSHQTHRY

[14] = target: T2, Cyclin-dependent kinase 8; experiment: Affinity Phenotypic Cellular interaction: (Reporter-based luciferase assay (in COLO205 (APC mutant) bearing activating WNT-pathway mutations)) EUB0001623a CDK8; assay type: functional, cell-based; parameters: mode of action Inhibitor, recommended concentration 100 nM; settings: colo 205
[15] = target: T2, Cyclin-dependent kinase 8; experiment: Affinity Phenotypic Cellular interaction: (Reporter-based luciferase assay (in PA-1 cell line bearing activating WNT-pathway mutations)) EUB0001623a CDK8; assay type: functional; parameters: mode of action Inhibitor, recommended concentration 100 nM
[16] = target: Cyclin-dependent kinase 13 (Homo sapiens, UniProt Q14004); experiment: Affinity Phenotypic Cellular interaction: (In-Cell western blot (using MDA-MB-231 cells)) EUB0001632a CDK13; assay type: functional, cell-based; parameters: mode of action Inhibitor, recommended concentration 1 uM
[17] = target: Inhibitor of nuclear factor kappa-B kinase subunit beta (Homo sapiens, UniProt O14920); experiment: Affinity Phenotypic Cellular interaction: (Inhibition of expression of ICAM-1 in HeLa cells) EUB0001492b IKBKB; assay type: functional, cell-based; parameters: mode of action Inhibitor, recommended concentration 1 uM
Activin receptor type-1 = Activin receptor type-1 (Homo sapiens, UniProt Q04771); experiment: Affinity Phenotypic Cellular interaction: (Western Blot (inhibition of ALK2 catalysed phosphorylation of SMAD1/5/8, BMP branch signalling)) EUB0001184b ACVRL1; assay type: functional; parameters: mode of action Inhibitor, recommended concentration 1 uM
[18] = target: T3, Casein kinase I isoform alpha (Homo sapiens, UniProt P48729); experiment: Affinity Phenotypic Cellular interaction: (Western Blot assay (inhibition of CSNK1D/E-mediated phosphorylation of DVL3, analyzed by change in phosphorylation-dependent mobility shift)) EUB0001205a CSNK1A1; assay type: functional; parameters: mode of action Inhibitor, recommended concentration 1 uM
T3 sequence (P48729 whole entry, canonical isoform): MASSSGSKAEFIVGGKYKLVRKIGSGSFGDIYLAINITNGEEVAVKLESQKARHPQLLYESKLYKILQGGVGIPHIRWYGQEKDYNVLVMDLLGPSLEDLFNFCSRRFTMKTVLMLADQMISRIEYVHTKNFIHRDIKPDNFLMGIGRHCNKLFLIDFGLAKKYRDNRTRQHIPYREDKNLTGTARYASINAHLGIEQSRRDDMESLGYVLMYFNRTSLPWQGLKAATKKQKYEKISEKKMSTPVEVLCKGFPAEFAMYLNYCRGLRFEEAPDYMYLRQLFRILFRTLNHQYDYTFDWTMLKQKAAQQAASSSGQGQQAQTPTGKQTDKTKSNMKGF

[19] = target: T4, Casein kinase I isoform delta (Homo sapiens, UniProt P48730); experiment: Affinity Phenotypic Cellular interaction: (Western Blot assay (inhibition of CSNK1D/E-mediated phosphorylation of DVL3, analyzed by change in phosphorylation-dependent mobility shift)) EUB0001205a CSNK1D; assay type: functional; parameters: mode of action Inhibitor, recommended concentration 1 uM
T4 sequence (P48730 whole entry, canonical isoform): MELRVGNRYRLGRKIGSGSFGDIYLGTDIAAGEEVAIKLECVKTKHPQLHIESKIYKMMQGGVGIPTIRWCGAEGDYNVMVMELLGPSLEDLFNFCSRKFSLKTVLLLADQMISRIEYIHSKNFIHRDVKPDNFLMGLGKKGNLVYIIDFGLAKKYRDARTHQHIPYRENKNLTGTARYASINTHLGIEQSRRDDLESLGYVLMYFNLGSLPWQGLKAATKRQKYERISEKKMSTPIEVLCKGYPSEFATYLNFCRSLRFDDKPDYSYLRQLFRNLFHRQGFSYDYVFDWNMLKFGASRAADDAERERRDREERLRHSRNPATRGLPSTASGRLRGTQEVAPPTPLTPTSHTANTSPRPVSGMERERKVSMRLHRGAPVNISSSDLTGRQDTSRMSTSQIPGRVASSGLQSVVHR

[20] = target: T5, Casein kinase I isoform epsilon (Homo sapiens, UniProt P49674); experiment: Affinity Phenotypic Cellular interaction: (Western Blot assay (inhibition of CSNK1D/E-mediated phosphorylation of DVL3, analyzed by change in phosphorylation-dependent mobility shift)) EUB0001205a CSNK1E; assay type: functional; parameters: mode of action Inhibitor, recommended concentration 1 uM
T5 sequence (P49674 whole entry, canonical isoform): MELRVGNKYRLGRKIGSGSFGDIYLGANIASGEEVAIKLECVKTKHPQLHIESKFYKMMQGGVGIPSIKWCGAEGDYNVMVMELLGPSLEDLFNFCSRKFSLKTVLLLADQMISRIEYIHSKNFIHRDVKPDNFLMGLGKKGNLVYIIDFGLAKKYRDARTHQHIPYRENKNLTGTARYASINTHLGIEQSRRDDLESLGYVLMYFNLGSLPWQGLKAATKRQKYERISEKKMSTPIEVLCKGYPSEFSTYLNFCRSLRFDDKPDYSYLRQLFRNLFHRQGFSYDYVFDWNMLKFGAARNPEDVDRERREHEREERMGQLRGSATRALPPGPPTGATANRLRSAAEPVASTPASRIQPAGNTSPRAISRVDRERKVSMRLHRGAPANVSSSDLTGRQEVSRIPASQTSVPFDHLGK

[21] = target: T3, Casein kinase I isoform alpha; assay type: functional, cell-based, T-REx-293
[22] = target: T3, Casein kinase I isoform alpha; assay type: functional
[23] = target: T4, Casein kinase I isoform delta; assay type: functional
[24] = target: T5, Casein kinase I isoform epsilon; assay type: functional
[25] = target: T6, Leucine-rich repeat serine/threonine-protein kinase 2 (Homo sapiens, UniProt Q5S007, G2019S); assay type: functional, subcellular, Brain, lysate
T6 sequence (Q5S007 whole entry G2019S): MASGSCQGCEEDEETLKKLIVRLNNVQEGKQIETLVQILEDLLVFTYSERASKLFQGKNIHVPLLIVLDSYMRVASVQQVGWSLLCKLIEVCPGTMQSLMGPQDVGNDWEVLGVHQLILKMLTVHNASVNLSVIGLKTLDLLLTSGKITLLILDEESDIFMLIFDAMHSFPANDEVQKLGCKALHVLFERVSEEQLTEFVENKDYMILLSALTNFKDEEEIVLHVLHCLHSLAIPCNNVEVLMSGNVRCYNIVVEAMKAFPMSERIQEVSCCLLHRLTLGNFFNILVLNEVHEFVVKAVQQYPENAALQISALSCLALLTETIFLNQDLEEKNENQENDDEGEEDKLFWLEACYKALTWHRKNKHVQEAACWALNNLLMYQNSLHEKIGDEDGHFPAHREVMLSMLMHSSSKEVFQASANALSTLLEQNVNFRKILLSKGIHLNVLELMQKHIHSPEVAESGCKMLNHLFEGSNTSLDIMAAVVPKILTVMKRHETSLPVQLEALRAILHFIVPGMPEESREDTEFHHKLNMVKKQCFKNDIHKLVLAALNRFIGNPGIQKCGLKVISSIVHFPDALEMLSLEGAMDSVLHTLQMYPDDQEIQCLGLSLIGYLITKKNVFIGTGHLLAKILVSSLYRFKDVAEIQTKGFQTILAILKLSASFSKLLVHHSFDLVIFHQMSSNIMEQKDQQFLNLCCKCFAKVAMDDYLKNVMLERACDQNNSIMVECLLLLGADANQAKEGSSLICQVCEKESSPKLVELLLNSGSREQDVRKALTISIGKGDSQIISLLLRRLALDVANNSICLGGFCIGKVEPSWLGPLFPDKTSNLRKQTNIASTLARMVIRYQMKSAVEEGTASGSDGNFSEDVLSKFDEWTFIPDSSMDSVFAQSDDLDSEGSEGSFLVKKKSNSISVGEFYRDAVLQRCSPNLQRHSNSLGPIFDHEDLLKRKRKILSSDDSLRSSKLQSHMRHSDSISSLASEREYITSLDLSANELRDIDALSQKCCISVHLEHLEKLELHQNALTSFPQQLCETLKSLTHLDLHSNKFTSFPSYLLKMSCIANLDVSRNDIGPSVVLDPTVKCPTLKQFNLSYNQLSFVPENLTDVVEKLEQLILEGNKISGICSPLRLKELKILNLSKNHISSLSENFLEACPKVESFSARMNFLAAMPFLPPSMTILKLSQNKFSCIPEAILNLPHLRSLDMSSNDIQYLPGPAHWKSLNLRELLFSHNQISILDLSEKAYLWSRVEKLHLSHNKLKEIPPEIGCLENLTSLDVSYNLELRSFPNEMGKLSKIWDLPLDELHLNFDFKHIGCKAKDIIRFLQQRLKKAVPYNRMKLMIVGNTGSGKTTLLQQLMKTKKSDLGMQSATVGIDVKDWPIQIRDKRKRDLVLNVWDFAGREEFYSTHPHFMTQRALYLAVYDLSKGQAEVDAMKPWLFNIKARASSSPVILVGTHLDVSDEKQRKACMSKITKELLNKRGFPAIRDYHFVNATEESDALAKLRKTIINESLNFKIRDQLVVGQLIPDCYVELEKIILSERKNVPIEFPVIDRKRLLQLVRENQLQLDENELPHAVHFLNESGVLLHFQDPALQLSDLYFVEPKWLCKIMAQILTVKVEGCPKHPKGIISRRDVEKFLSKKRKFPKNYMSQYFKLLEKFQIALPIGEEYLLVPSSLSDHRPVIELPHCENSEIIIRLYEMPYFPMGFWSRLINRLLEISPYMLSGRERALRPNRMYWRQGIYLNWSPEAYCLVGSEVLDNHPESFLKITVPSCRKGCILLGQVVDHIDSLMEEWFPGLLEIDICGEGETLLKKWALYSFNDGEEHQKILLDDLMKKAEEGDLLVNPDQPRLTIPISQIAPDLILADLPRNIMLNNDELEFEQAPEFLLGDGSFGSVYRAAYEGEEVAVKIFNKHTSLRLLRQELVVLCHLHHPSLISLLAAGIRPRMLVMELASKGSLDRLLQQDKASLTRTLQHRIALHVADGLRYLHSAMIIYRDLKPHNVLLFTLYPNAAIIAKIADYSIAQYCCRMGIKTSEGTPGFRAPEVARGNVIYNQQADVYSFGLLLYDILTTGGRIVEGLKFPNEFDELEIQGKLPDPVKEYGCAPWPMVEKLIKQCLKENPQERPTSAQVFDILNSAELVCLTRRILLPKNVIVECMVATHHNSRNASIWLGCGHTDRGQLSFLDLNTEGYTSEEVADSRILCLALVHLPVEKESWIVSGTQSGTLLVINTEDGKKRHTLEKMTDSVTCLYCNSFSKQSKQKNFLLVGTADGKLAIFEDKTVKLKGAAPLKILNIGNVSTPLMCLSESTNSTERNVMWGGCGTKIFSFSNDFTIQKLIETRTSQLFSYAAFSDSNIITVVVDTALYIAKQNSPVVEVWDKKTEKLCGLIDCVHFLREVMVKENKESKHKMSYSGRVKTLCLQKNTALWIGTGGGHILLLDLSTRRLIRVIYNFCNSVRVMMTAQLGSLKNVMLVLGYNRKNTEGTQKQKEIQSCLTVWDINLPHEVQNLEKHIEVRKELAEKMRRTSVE

[26] = target: T6, Leucine-rich repeat serine/threonine-protein kinase 2; assay type: functional, subcellular, Brain, lysate; remark: listed apart in the source
KiSS-1 receptor = KiSS-1 receptor (Homo sapiens, UniProt Q969F8); experiment: Affinity Phenotypic Cellular interaction: (Agonist activity for hGPR54 (C-terminal ethyl amide)) EUB0001072a KISS1R; assay type: functional; parameters: mode of action Negative control for KISS1-305, recommended concentration 1 uM

- IC50 [1]: > 10 nM
SMILES: COc1cnccc1Nc1nc(-c2nn(Cc3c(F)cc(OCCO)cc3F)c3ccccc23)ncc1OC

- IC50 [2]: 190 nM
SMILES: CC(C)(O)[C@H](F)CN1Cc2cc(NC(=O)c3cnn4cccnc34)c(N3CCOCC3)cc2C1=O

- IC50 [13]: 32000 nM
- IC50 [14]: 9 nM
- IC50 [15]: 52 nM
SMILES: Cc1n[nH]c2ncc(C(=O)N3CCC[C@H]3c3ccc(Cl)cc3)cc12

- EC50 (Activin receptor type-1): < 100 nM
SMILES: COc1cc(-c2cncc(-c3ccc(N4CCN(C(C)C)CC4)cc3)c2C)cc(F)c1C(N)=O

- EC50 [18]: 200 nM
- EC50 [19]: 200 nM
- EC50 [20]: 200 nM
- IC50 [21]: 10500 nM
- IC50 [22]: 1600 nM
- IC50 [23]: 1600 nM
- IC50 [24]: 1600 nM
SMILES: CN1CCC(F)(Cn2cnc(-c3ccc(F)cn3)c2-c2ccnc3[nH]ccc23)CC1

More lines, now with the values behind:

SMILES: CN(C)CCOc1ccc(-c2nc(-c3ccncc3)c(-c3ccc4c(c3)CC/C4=N\O)[nH]2)cc1 [SB590885]
- IC50 [3]: 11000 nM
- IC50 [4]: 5100 nM
- IC50 [5]: 6100 nM
- IC50 [6]: 1100 nM
- IC50 [7]: > 13000 nM
- IC50 [8]: 1500 nM
- IC50 [9]: 290 nM
- IC50 [10]: 28 nM
- IC50 [11]: 58 nM
- IC50 [12]: 190 nM

SMILES: Cn1cc(-n2cnc3c(NCc4nc5cc(Cl)c(Cl)cc5[nH]4)nc(N4CCOCC4)nc32)cn1
- EC50 [16]: 105 nM

SMILES: CCC(F)(F)c1cc(N2CCC(S(C)(=O)=O)CC2)nc2sc(C(N)=O)c(N)c12 [BI-605906]
- EC50 [17]: 700 nM

SMILES: N#Cc1cccc(-c2c[nH]c3ncnc(N4CCOCC4)c23)c1
- IC50 [25]: 21 nM
- IC50 [26]: 103 nM

SMILES: CNC(=N)NCCC[C@H](NC(=O)[C@H](CC(C)C)NC(=O)NNC(=O)[C@H](Cc1ccccc1)NC(=O)[C@H](CO)NC(=O)[C@H](CC(N)=O)NC(=O)[C@@H](Cc1cccnc1)NC(=O)[C@H](N)Cc1ccc(O)cc1)C(=O)NCC(N)=O [KISS1-543] (H-[dY][d3Pal]NSF[azaGly]L[Arg(Me)]G-NH2)
- EC50 (KiSS-1 receptor): > 10000 nM
